The values below come from patent US8106055B2, “Substituted amide compounds” (Gruenenthal GmbH, priority 2007, dated 2012).

Read-outs that look alike come from different tables or passages of the source.

In experiment [1] the target is T1, human μ opiate receptor (Homo sapiens, UniProt P35372).
T1 construct: purchased PerkinElmer Life Sciences, Zaventem, Belgium RB-HOM; host or cells: CHO-K1 cells (membrane preparation)
As to the kind of experiment: Affinity for the human μ opiate receptor ([3H]-naloxone displacement, CHO-K1 receptor membrane preparation, SPA). The format is binding. To be noted: 1.5 h, test concentration 1 μM. As for the experimental part:
Binding data of the compounds on the μ opioid receptor and data on the inhibition of reuptake of serotonin (5-HT) are given in Table 1. The data for the μ receptor were measured at a test concentration of 1 μM, and those for the serotonin reuptake at 10 μM. The values are stated in % inhibition.
Investigation of the Activity of the Compounds of the Invention Method for Determining the Affinity for the Human μ Opiate Receptor
The receptor affinity for the human p opiate receptor is determined in a homogeneous set-up in microtitre plates. For this, dilution series of the substances to be tested are incubated with a receptor membrane preparation (15-40 μg of protein/250 μl of incubation batch) of CHO-K1 cells which express the human p opiate receptor (RB-HOM receptor membrane preparation from PerkinElmer Life Sciences, Zaventem, Belgium) in the presence of 1 nmol/l of the radioactive ligand [^3H]-naloxone (NET719, PerkinElmer Life Sciences, Zaventem, Belgium) and 1 mg of WGA-SPA-Beads (wheat germ agglutinin SPA beads from Amersham/Pharmacia, Freiburg, Germany) in a total volume of 250 μl for 90 minutes at room temperature. 50 mmol/l of Tris-HCl supplemented with 0.06% of bovine serum albumin is used as the incubation buffer. 100 μmol/l of naloxone are additionally added for determination of the non-specific binding. After the end of the ninety-minute incubation time, the microtitre plates are centrifuged for 20 minutes at 1,000 g and the radioactivity is measured in a β-counter (Microbeta-Trilux, PerkinElmer Wallac, Freiburg, Germany). The percentage displacement of the radioactive ligand from its binding to the human p opiate receptor is determined at a concentration of the test substances of 1 μmol/l and stated as the percentage inhibition of the specific binding. Starting from the percentage displacement by various concentrations of the test substances, IC50 inhibitory concentrations which cause a 50 percent displacement of the radioactive ligand are calculated. By conversion by means of the Cheng-Prusoff relationship, Ki values for the test substances are obtained.

Experiment [2] concerns the target T2, human bradykinin 1 receptor (B1R) (Homo sapiens, UniProt P46663).
T2 construct: expressed in transfected cells; host or cells: CHO K1 cells
T2 sequence (P46663 1-353): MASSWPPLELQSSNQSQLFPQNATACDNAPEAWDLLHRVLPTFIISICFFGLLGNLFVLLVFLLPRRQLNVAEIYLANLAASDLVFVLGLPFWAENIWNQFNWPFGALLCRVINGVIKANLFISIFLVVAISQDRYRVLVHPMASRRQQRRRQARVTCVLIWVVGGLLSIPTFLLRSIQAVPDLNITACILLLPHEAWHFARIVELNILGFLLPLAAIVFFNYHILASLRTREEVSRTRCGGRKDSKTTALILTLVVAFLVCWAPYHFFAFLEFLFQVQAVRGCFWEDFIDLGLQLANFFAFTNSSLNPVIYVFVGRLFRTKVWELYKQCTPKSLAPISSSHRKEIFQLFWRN
As to the kind of experiment: Functional investigation on the human bradykinin 1 receptor (B1R), Ca2+ FLIPR assay in CHO K1 hB1R cells. Format: cell-based. Conditions: test substance 10 μM, Ca2+ FLIPR, CHO K1 hB1R cells; for inhibition at 10 µM: CHO-K1, B1R antagonism human, read-out: B1R Ant. h [10 μM] % Inhibition. The essentials:
(§1)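 Stably transfected CHO K1 cells loaded with Fluo-4; FLIPR Ca2+ fluorescence peak (ex 488/em 540 nm). Compound added first (agonism vs Lys-Des-Arg9-bradykinin ≥50 nM human, Des-Arg9-bradykinin 10 μM rat), then after 10-20 min agonist at EC80; antagonism as % inhibition, IC50 from concentration series, n=2-3, N≥2.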

Experiment [3] has as its target T3, bradykinin 1 receptor (B1R) of the rat (Rattus norvegicus, UniProt P97583).
T3 construct: expressed in transfected cells; host or cells: CHO K1 cells
T3 sequence (P97583 1-337): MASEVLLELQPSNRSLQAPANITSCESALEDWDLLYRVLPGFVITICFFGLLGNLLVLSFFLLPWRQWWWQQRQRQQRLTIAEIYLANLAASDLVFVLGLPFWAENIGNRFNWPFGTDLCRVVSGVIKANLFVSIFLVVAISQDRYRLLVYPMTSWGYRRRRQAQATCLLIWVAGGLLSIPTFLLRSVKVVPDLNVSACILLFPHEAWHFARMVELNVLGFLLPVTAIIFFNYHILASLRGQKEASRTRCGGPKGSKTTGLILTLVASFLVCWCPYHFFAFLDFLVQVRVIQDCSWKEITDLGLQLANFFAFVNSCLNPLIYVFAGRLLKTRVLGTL
As to the kind of experiment: Functional investigation on the rat bradykinin 1 receptor (B1R), Ca2+ FLIPR assay in CHO K1 rB1R cells. The format is cell-based. Conditions: test substance 10 μM, Ca2+ FLIPR, CHO K1 rB1R cells; for inhibition at 10 µM: CHO-K1, B1R antagonism rat, read-out: B1R Ant. r [10 μM] % Inhibition. The essentials: as §1

[4] abbreviates: Table 3, to be read in the same way as Table 1, read-out: μ.

T1 sequence (P35372 whole entry): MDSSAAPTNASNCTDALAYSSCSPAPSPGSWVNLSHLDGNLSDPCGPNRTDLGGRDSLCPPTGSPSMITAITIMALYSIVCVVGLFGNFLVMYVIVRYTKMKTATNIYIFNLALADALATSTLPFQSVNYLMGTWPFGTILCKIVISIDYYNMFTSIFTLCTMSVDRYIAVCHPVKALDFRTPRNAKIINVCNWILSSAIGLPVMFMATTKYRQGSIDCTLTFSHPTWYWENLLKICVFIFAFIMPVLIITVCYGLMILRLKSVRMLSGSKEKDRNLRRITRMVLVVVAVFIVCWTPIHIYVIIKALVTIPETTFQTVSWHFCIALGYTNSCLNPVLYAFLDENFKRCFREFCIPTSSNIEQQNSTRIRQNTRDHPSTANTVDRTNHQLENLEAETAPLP

For the compound `COc1cc(C)c(S(=O)(=O)N2CCCCC2COCC(=O)NC2CCC(C(CCc3ccccc3)N3CCOCC3)CC2)c(C)c1` (centres unmarked) [Example 733, 2-((1-(4-methoxy-2,6-dimethylphenylsulfonyl)piperidin-2-yl)methoxy)-N-(4-(1-morpholino-3-phenylpropyl)cyclohexyl)acetamide], the inhibition at 1 µM in experiment [1] (setting [4]) was determined as 21%. For the same compound, the results for the inhibition at 10 µM in experiment [2] and in experiment [3] were 87% and 100%, respectively.
With `CN1CCN(C(c2ccccc2)C2CCC(NC(=O)COCCN(C)S(=O)(=O)c3c(Cl)cccc3Cl)CC2)CC1` (centres unmarked) [Example 684, 2-(2-(2,6-dichloro-N-methylphenylsulfonamido)ethoxy)-N-(4-((4-methylpiperazin-1-yl)(phenyl)methyl)cyclohexyl)acetamide], the inhibition at 1 µM in experiment [1] (setting [4]) came out at 29%. The inhibition at 10 µM was found to be 95% in experiment [2] and 61% in experiment [3].
With `COc1cc(C)c(S(=O)(=O)N(C)CCOCC(=O)NC2CCC(C(CCc3ccccc3)N3CCCCC3)CC2)c(C)c1` (centres unmarked) [Example 663, 2-(2-(4-methoxy-N,2,6-trimethylphenylsulfonamido)ethoxy)-N-(4-(3-phenyl-1-(piperidin-1-yl)propyl)cyclohexyl)acetamide], in experiment [1] (setting [4]), the inhibition at 1 µM came to 26%. Besides, the inhibition at 10 µM was 103% in experiment [2] and 95% in experiment [3].
With `COc1cc(C)c(S(=O)(=O)N(C)CCOCC(=O)NC2CCC(C(c3ccccc3)N(C)C)CC2)c(C)c1C` (centres unmarked) [Example 597, N-[4-(dimethylaminophenylmethyl)-cyclohexyl]-2-{2-[(4-methoxy-2,3,6-trimethylbenzenesulfonyl)-methylamino]-ethoxy}-acetamide], the inhibition at 1 µM in experiment [1] (Table 2, read-out: μ receptor) came to 87%. Moreover, the “B1R Ant. h [10 μM] % Inhibition” value in experiment [2] (B1R antagonism human) is reported as 72%. Besides, the “B1R Ant. r [10 μM] % Inhibition” value in experiment [3] (B1R antagonism rat) is reported as −22%.
For `COc1cc(C)c(S(=O)(=O)N2CCC(OCC(=O)NCC3CCC(C(CCc4ccccc4)N4CCCC4)CC3)C2)c(C)c1` (centres unmarked) [Example 726, 2-(1-(4-methoxy-2,6-dimethylphenylsulfonyl)pyrrolidin-3-yloxy)-N-((4-(3-phenyl-1-(pyrrolidin-1-yl)propyl)cyclohexyl)methyl)acetamide], the inhibition at 1 µM in experiment [1] (setting [4]) worked out at 23%. For the same compound, the inhibition at 10 µM in experiment [2] was determined as 103%; in experiment [3] it was 94%.
Turning to `CN(CCOCC(=O)NCC1CCC(C(CCc2ccccc2)N2CCCC2)CC1)S(=O)(=O)c1c(Cl)cc(C(F)(F)F)cc1Cl` (centres unmarked) [Example 746, 2-(2-(2,6-dichloro-N-methyl-4-(trifluoromethyl)phenylsulfonamido)ethoxy)-N-((4-(3-phenyl-1-(pyrrolidin-1-yl)propyl)cyclohexyl)methyl)acetamide], the inhibition at 1 µM in experiment [1] (setting [4]) is 8%. In addition, the inhibition at 10 µM in experiment [2] was 98%; in experiment [3], 51%.
For `COc1cc(C)c(S(=O)(=O)N2CCCCC2COCC(=O)NC2CCC(C(c3ccccc3)N3CCN(C)CC3)CC2)c(C)c1` (centres unmarked) [Example 735, 2-((1-(4-methoxy-2,6-dimethylphenylsulfonyl)piperidin-2-yl)methoxy)-N-(4-((4-methylpiperazin-1-yl)(phenyl)methyl)cyclohexyl)acetamide], the inhibition at 1 µM in experiment [1] (setting [4]) is 56%. The inhibition at 10 µM in experiment [2] and in experiment [3] was 103% each time.
With `COc1cc(C)c(S(=O)(=O)N2CCC(OCC(=O)NC3CCC(C(CCc4ccccc4)N4CCOCC4)CC3)C2)c(C)c1` (centres unmarked) [Example 668, 2-(1-(4-methoxy-2,6-dimethylphenylsulfonyl)pyrrolidin-3-yloxy)-N-(4-(1-morpholino-3-phenylpropyl)cyclohexyl)acetamide], the inhibition at 1 µM in experiment [1] (setting [4]) stood at 10%. Also, the inhibition at 10 µM in experiment [2] was 88%; in experiment [3] it was 64%.
As to `CN(C)C(c1ccccc1)C1CCC(NC(=O)CCNC(=O)c2nc(-c3ccc4c(c3)OCO4)no2)CC1` (centres unmarked) [Example 768, 3-benzo[1,3]dioxol-5-yl-[1,2,4]oxadiazole-5-carboxylic acid {2-[4-(dimethylamino-phenyl-methyl)-cyclohexylcarbamoyl]-ethyl}-amide], the inhibition at 10 µM in experiment [2] is -3%; in experiment [3], -2%.
